Holding throughout (experiment): NCI tumour cell line growth inhibition, 48 h
The test system of test [1] is SF-268 CNS.
The subject of test [2] is CCRF-CEM leukemia.
Test [3] relates to SF-295 CNS.
Test [4] has as its system RXF 393 renal.
Test [5] concerns HCC-2998 colon.
Test [6] deals with SK-OV-3 ovarian.
For test [7], the system named is COLO 205 colon.
For test [8], the system named is NCI-H23 lung.
The subject of test [9] is HCT-15 colon.
For test [10], the system named is NCI-H522 lung.

Experimental findings from PubChem BioAssay (NCI) are described below.

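Assay format: 96-well plates, 48-hour exposure. TGI denotes the concentration required for complete inhibition of growth.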 Where a SMILES comes first, the peptide text is derived from it. [ ]: non-standard residue; d: D form. pGlu = O=C1CC[CH](C(=O)O)N1

With `CC(NC(=O)C(Cc1cnc[nH]1)NC(=O)C1CCC(=O)N1)C(N)=O` (stereo not drawn) ([pGlu]-His-Ala-NH2; configuration not given here), the TGI in test [1], in [2], in [3], in [4], in test [5] and in test [6] was more than 100 µM throughout. For the same compound, the TGI in test [7] and in [8] was more than 100 µM throughout.
With `Cc1c(O)c(=O)ccn1CCc1c[nH]c2ccccc12`, the TGI in test [1] was 8.77 µM; in test [3], more than 100 µM; in test [6], more than 100 µM; in test [7], 73.9 µM; in test [8], more than 100 µM; in test [9], more than 100 µM.
With `COc1ccc(-c2nnc(CCCCCCCCc3nnc(-c4ccc(OC)cc4)n3N)n2N)cc1`, the TGI in test [1], in [2], in [3], in test [5], in test [6] and in [10] was more than 100 µM in each case. The TGI in test [7], in [8] and in [9] was more than 100 µM throughout.
Take `COc1ccc(-c2nnc(-c3ccncc3)o2)cc1`: the TGI in test [1], in [2], in test [3], in test [4], in [6] and in test [10] was more than 100 µM throughout. Moreover, the TGI in test [7], in test [8] and in [9] was more than 100 µM throughout.
For `C=CCCC(On1c(-c2ccc(Cl)cc2)csc1=S)c1ccccc1` (centres undefined), the TGI was more than 100 µM in [1]; more than 100 µM in test [2]; more than 100 µM in [3]; more than 100 µM in test [4]; 71.7 µM in test [10]; more than 100 µM in test [7]. Further, the TGI in [8] and in test [9] was more than 100 µM in each case.
As for `CN1CCN(/C(N)=C(\C#N)C(=O)Nc2ccccc2)CC1`, the TGI in test [2], in test [3], in [5], in [6], in test [7] and in test [8] was more than 100 µM in each case. Besides, the TGI in test [9] was more than 100 µM.
For `CCC/C(Cl)=N\OC(=O)Nc1ccc(F)c([N+](=O)[O-])c1`, the TGI was 29.2 µM in [1]; more than 100 µM in test [2]; more than 100 µM in test [3]; 31.3 µM in test [5]; 78.9 µM in test [6]; 4.3 µM in test [10]. The TGI amounted to 12 µM in [7], 28.1 µM in test [8] and 34.8 µM in test [9].
For `CCOC(=O)C1C[C@H]2CO[C@H](c3ccccc3)N2C1=O` (some centres undefined), the TGI in test [1], in test [2], in test [3], in test [4], in test [5] and in [10] was more than 100 µM throughout. Further, the TGI in test [7], in test [8] and in [9] was more than 100 µM throughout.
With `CC(C)(C)c1cc(/C=C/C(=O)CC(=O)/C=C/c2cc(C(C)(C)C)c(O)c(C(C)(C)C)c2)cc(C(C)(C)C)c1O`, the TGI in test [1], in test [2], in test [3], in test [4], in test [6] and in test [10] was more than 50 µM in each case. In addition, the TGI in test [7], in [8] and in test [9] was more than 50 µM each time.
As to `CCOC(=O)C1=CC(C)(C(=O)OCC)Nc2c(nc(SC)n(C)c2=O)N1` (centres undefined), the TGI in test [1], in test [2], in test [3], in [5], in test [6] and in test [10] was more than 10 µM throughout. Besides, the TGI in [7], in test [8] and in test [9] was more than 10 µM in each case.
For `CC1=Nc2c(C#N)ncn2N=C(C)C1`, the TGI in [1], in test [2], in test [3], in test [4], in test [6] and in test [7] was more than 100 µM in each case. The TGI in test [8] is more than 100 µM.
As to `CCOc1cc2c(cc1O)CC[C@@H]1[C@@H]2CC[C@]2(C)C(OS(=O)OC3CC[C@@H]4[C@H]5CCc6cc(O)c(OCC)cc6[C@@H]5CC[C@@]34C)CC[C@@H]12` (some centres undefined), the TGI in test [1] was more than 100 µM; in test [2], more than 100 µM; in [3], 22.5 µM; in test [4] it was more than 20.5 µM; in test [5], 31.9 µM; in test [6] it was more than 37.3 µM. The values for the TGI in test [7], in [8] and in test [9] were more than 53.7 µM, 14 µM and 15.3 µM, respectively.
Regarding `C=CC[C@@H]1C=C[C@@H](C(=O)OC)n2c(=O)n(-c3ccccc3)c(=O)n21`, the TGI in test [1], in test [2], in test [3], in test [5], in test [6] and in [10] was more than 100 µM each time. In addition, the TGI in test [7], in test [8] and in test [9] was more than 100 µM throughout.
Turning to `COc1c(-c2cccs2)oc2c(CC(=O)O)cccc2c1=O`, the TGI in [2], in test [3], in test [4], in [5], in test [6] and in test [10] was more than 100 µM in each case. For the same compound, the TGI in test [7] and in test [8] was more than 100 µM throughout.
Turning to `N#CCOc1cccc(C2(N3CC=CCC3)CCCCC2)c1`, the TGI in test [1], in [2], in test [3], in test [6], in [10] and in [7] was more than 100 µM throughout. The TGI in test [8] and in test [9] was more than 100 µM each time.
Turning to `CCOC(=O)c1nc2cc(C(F)(F)F)ccc2nc1Nc1ccc(F)cc1`, the TGI in [1] is more than 100 µM; in [2], 66.2 µM; in test [3], more than 100 µM; in test [4] it was more than 100 µM; in test [5] it was more than 100 µM; in [6], more than 100 µM. In addition, the TGI in [7], in test [8] and in [9] was more than 100 µM each time.
Consider `COc1ccc(/C=N\NC(=O)Nc2cccc3ccccc23)cc1`, for which the TGI in [1], in test [2], in test [5], in test [10], in test [7] and in test [8] was more than 100 µM in each case. Also, in [9], the TGI was more than 100 µM.
With `COC(=O)c1c(O)ccc2c1c1c(n2Cc2ccccc2OC)C(=O)c2ccccc2C1`, the TGI is more than 100 µM in [1]; 81.2 µM in test [2]; 88.1 µM in test [4]; more than 100 µM in [6]; 30 µM in test [7]; more than 100 µM in test [8]. In addition, the TGI in [9] was more than 100 µM.
For the compound `COc1cccc2c1-c1c(OC)cccc1SS2`, the TGI in [1] is 80 µM; in test [3], 43.6 µM; in test [4], 63.6 µM; in [5], 49.3 µM; in [10] it was 64.5 µM; in test [7], 56.6 µM. Also, the TGI in test [8] was 72.8 µM; in test [9], 33.3 µM.
For `CC1(C)O[C@H]2OC(CO)C(OS(C)(=O)=O)[C@H]2O1` (some centres undefined), the TGI in [1], in test [2], in [3], in test [5], in test [10] and in test [7] was more than 100 µM each time. The TGI in test [8] and in test [9] was more than 100 µM in each case.
Regarding `CCCCCCCCCCCCCCCCCCOc1ccc(/C=C/C2=[N+](CCCl)CCO2)cc1`, the TGI in test [2], in test [3], in test [6], in test [10], in [7] and in test [9] was more than 100 µM throughout.
As to `CC(=O)Nc1ccc(-c2nnc(SCC(=O)Nc3cccc([N+](=O)[O-])c3)o2)cc1`, the TGI in [1] was 31.7 µM; in [2], more than 100 µM; in [3], 32 µM; in test [4] it was 25.7 µM; in [6], 24.5 µM; in test [10], 22.4 µM. Moreover, the results for the TGI in [7], in test [8] and in test [9] were 33.8 µM, 21.2 µM and 46.2 µM, respectively.
With `COc1cc(/C=C2\N=C(C)N(n3c(-c4ccccc4)nc4ccccc4c3=O)C2=O)cc(OC)c1OC`, the TGI in [1], in test [2], in [3], in test [5], in test [6] and in test [10] was more than 100 µM in each case. For the same compound, the TGI in [7], in [8] and in test [9] was more than 100 µM in each case.
On to `CNC(=O)c1ccccc1[S+]1c2cccc3cccc(c23)C(=O)N1C` (centres undefined), for which the TGI in test [1], in test [2], in test [3], in test [4], in test [10] and in [7] was more than 100 µM throughout. Moreover, the TGI in test [8] and in test [9] was more than 100 µM in each case.
On to `CO[C@H]1C[C@H](n2cc(C)c(=O)[nH]c2=O)O[C@@H]1CO`, for which the TGI in test [1], in test [2], in test [3], in test [4], in test [5] and in test [6] was more than 100 µM each time. The TGI in test [7], in test [8] and in [9] was more than 100 µM throughout.
In the case of `O=C(Cn1c(=O)oc2ccc(C(=O)c3ccccc3Cl)cc21)c1ccc([N+](=O)[O-])cc1`, the TGI was more than 100 µM in [1]; more than 100 µM in test [2]; 81.7 µM in test [3]; 34.6 µM in [5]; 66 µM in test [6]; 39.9 µM in test [10]. The TGI in test [7] is 39.6 µM; in test [8], more than 100 µM; in test [9], 65.4 µM.
`Cc1cc2c(c(C(=O)NCCC(=O)N[C@@H](C)C(=O)OCc3ccccc3)c1)Oc1c(cc(C)cc1C(=O)NCCC(=O)N[C@@H](C)C(=O)OCc1ccccc1)S2`: the TGI in test [1], in test [2], in test [3], in test [4], in test [5] and in test [6] was more than 100 µM in each case. Moreover, the TGI in test [7], in [8] and in test [9] was more than 100 µM throughout.
Consider `Cc1cc2c(cc1-c1cc3c(cc1C)C(C(C)C)=C(O)C(=O)/C3=C\Nc1c(C)n(C)n(-c3ccccc3)c1=O)/C(=C/Nc1c(C)n(C)n(-c3ccccc3)c1=O)C(=O)C(O)=C2C(C)C`, for which the TGI in [1], in [2], in test [3], in test [4], in test [6] and in test [10] was more than 100 µM each time. Also, the TGI in test [7], in test [8] and in test [9] was more than 100 µM in each case.
With `CN(C)CCNC(=O)c1cccc2[nH]c(-c3ccncc3)nc12`, the TGI in test [1] was 47.4 µM; in test [2], 7.77 µM; in [3] it was 7.97 µM; in test [4], 14.5 µM; in [5] it was 4.34 µM; in test [10], 3.97 µM. In addition, the TGI in [7] came to 3.26 µM; in [8] it was 32.1 µM; in test [9], 10.4 µM.
Turning to `CCCCNC(=S)c1ccc(OC(=O)Nc2ccc(Cl)cc2)cc1`, the TGI in [1], in test [2], in test [3], in test [5], in test [6] and in test [10] was more than 100 µM each time. Besides, the results for the TGI in [7], in test [8] and in [9] were 57.5 µM, more than 100 µM and more than 100 µM, respectively.
